Blank lines part the entries; values can stand above or below the molecule they belong to.
Tests used:
[1] = target: T1, Oxysterols receptor LXR-beta (Homo sapiens) (UniProt P55055); test: Selectivity interaction (Reporter gene assay) EUB0001168a NR1H2; set-up: recommended concentration 1 uM; details: screened at recom. conc., Selectivity number of off-targets 1.0, Selectivity number of targets 19.0, Source Knowledge inhouse
T1 sequence (whole entry): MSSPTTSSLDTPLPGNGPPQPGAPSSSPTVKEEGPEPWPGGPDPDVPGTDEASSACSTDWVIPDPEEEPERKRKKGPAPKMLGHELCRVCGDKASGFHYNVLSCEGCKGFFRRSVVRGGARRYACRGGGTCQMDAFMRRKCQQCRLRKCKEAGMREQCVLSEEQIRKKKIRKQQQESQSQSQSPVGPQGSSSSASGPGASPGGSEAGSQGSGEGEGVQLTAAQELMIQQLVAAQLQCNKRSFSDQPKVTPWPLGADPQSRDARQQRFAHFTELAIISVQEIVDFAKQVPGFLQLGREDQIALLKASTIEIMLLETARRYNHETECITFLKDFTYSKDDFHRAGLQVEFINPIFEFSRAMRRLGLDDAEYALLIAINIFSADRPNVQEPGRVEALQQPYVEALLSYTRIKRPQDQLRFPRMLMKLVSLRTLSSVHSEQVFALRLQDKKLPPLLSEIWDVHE

[2] = target: T2, Hepatocyte nuclear factor 4-alpha (Homo sapiens) (UniProt P41235); test: Selectivity interaction (Reporter gene assay) EUB0001168a HNF4A; set-up: recommended concentration 1 uM
T2 sequence (whole entry): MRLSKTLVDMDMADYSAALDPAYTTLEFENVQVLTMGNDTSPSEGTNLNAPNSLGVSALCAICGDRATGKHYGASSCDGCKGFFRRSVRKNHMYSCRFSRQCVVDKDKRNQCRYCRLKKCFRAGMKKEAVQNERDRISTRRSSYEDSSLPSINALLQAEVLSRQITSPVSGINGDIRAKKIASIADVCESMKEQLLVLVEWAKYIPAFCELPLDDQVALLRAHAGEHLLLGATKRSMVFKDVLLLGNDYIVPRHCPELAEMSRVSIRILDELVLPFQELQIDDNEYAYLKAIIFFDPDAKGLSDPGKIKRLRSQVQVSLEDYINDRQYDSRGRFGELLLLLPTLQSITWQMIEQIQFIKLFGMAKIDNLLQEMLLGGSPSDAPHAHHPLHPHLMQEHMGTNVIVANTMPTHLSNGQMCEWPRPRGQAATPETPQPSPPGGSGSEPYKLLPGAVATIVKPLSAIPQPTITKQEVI

[3] = target: T3, Nuclear receptor subfamily 2 group C member 1 (Homo sapiens) (UniProt P13056); test: Selectivity interaction (Reporter gene assay) EUB0001168a NR2C1; set-up: recommended concentration 1 uM
T3 sequence (whole entry): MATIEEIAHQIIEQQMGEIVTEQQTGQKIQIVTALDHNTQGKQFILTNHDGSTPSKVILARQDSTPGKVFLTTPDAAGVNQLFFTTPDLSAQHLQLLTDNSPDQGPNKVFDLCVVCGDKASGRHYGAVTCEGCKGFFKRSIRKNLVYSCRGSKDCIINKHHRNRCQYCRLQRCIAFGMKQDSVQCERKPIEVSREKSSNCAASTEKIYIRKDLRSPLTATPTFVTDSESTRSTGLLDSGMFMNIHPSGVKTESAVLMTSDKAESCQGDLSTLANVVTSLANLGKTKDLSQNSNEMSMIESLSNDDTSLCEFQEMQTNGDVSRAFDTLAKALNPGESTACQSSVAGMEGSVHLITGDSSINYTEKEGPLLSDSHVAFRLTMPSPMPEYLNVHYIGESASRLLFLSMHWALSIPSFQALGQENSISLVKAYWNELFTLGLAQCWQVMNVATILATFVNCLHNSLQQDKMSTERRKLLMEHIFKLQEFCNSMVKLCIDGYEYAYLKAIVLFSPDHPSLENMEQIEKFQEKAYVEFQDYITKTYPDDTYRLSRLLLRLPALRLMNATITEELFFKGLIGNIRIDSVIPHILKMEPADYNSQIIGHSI

[4] = target: Nuclear receptor subfamily 2 group E member 1 (Homo sapiens) (UniProt Q9Y466); test: Selectivity interaction (Reporter gene assay) EUB0001168a NR2E1; set-up: recommended concentration 1 uM
Nuclear receptor subfamily 2 group E member 1 (Homo sapiens), sequence (Q9Y466 whole entry): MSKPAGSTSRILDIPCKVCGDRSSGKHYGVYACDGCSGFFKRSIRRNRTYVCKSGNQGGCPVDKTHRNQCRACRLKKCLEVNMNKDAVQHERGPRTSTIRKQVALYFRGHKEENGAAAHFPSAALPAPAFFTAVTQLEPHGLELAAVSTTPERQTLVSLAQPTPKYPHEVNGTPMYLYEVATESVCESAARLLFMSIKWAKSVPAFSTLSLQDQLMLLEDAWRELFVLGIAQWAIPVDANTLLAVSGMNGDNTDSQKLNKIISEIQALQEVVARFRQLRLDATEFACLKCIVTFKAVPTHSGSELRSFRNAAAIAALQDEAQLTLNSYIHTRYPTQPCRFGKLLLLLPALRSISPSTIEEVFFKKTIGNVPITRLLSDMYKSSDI

[5] = target: Nuclear receptor subfamily 4immunitygroup A member 1 (Homo sapiens) (UniProt P22736); test: Selectivity interaction (Reporter gene assay) EUB0001168a NR4A1; set-up: recommended concentration 1 uM
Nuclear receptor subfamily 4immunitygroup A member 1 (Homo sapiens), sequence (P22736 whole entry): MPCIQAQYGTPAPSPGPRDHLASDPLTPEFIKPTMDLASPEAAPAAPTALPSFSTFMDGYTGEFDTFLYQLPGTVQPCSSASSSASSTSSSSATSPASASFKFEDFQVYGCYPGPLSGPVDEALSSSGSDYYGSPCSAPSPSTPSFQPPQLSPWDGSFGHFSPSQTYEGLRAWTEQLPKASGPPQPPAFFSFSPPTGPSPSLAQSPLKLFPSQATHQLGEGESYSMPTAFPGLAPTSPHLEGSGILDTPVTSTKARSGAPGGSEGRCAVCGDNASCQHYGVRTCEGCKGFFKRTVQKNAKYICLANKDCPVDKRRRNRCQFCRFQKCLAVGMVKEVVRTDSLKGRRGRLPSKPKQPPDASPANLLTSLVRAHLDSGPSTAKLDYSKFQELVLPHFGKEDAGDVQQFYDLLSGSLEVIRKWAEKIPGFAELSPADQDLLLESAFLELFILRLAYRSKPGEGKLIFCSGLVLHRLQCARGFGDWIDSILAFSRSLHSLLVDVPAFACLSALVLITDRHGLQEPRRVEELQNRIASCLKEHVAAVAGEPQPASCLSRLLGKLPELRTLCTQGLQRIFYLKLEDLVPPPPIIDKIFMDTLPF

[6] = target: Steroidogenic factor 1 (Homo sapiens) (UniProt Q13285); test: Selectivity interaction (Reporter gene assay) EUB0001168a NR5A1; set-up: recommended concentration 1 uM
Steroidogenic factor 1 (Homo sapiens), sequence (Q13285 whole entry): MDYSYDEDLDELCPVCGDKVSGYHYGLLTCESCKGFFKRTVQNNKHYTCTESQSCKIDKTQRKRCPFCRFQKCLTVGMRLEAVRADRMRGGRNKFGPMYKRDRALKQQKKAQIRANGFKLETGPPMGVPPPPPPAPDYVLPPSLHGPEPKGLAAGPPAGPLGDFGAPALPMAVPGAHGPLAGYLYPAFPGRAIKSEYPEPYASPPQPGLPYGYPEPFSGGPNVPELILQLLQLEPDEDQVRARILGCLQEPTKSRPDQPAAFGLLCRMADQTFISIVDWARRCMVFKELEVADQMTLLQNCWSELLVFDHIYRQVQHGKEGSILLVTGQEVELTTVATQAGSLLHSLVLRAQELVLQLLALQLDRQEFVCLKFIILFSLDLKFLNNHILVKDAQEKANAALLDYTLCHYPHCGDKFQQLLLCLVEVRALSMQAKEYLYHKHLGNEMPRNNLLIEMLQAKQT

[7] = target: T4, Alpha trans-inducing protein (Human alphaherpesvirus 1) (UniProt A0A5J6DW59); test: Selectivity interaction (Reporter gene assay) EUB0001168a UL48; set-up: recommended concentration 1 uM
T4 sequence (A0A5J6DW59 as listed by the source): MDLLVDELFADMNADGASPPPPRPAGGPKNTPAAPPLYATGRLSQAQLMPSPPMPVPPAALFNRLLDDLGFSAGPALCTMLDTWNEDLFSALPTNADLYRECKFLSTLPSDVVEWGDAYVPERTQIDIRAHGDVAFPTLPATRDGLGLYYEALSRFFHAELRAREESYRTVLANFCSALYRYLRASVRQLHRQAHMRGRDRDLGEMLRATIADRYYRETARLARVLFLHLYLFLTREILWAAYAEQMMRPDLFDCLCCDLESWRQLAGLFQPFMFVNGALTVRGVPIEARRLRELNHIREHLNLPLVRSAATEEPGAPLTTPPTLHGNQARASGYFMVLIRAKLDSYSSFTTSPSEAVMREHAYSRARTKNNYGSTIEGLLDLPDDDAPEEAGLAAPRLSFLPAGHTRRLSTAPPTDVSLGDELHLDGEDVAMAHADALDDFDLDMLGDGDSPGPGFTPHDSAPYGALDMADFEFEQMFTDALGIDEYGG

[8] = target: T5, Retinoic acid receptor RXR-alpha (Homo sapiens) (UniProt P19793); test: Selectivity interaction (Reporter gene assay) EUB0001168a RXRA; set-up: recommended concentration 1 uM; details: reference bexarotene 1 uM, Selectivity number of off-targets 0.0, Selectivity number of targets 1.0, Source Knowledge inhouse
T5 sequence (whole entry): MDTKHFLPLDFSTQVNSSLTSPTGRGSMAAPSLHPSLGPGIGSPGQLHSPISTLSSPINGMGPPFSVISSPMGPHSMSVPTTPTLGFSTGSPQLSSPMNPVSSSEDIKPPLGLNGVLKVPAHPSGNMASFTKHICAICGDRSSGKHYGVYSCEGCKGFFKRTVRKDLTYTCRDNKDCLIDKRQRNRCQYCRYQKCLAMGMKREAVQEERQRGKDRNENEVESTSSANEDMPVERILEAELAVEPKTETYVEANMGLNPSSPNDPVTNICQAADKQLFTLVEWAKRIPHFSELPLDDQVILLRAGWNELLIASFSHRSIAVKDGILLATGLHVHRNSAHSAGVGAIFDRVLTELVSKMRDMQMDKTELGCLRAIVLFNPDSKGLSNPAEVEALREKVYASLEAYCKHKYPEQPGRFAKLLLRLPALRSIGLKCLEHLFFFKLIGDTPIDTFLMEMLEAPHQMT

[9] = target: T2, Hepatocyte nuclear factor 4-alpha (Homo sapiens); test: Selectivity interaction (Reporter gene assay) EUB0001163a HNF4A; set-up: recommended concentration 10 uM
[10] = target: T3, Nuclear receptor subfamily 2 group C member 1 (Homo sapiens); test: Selectivity interaction (Reporter gene assay) EUB0001163a NR2C1; set-up: recommended concentration 10 uM
[11] = target: Nuclear receptor subfamily 2 group E member 1 (Homo sapiens) (UniProt Q9Y466); test: Selectivity interaction (Reporter gene assay) EUB0001163a NR2E1; set-up: recommended concentration 10 uM
[12] = target: Nuclear receptor subfamily 4immunitygroup A member 1 (Homo sapiens) (UniProt P22736); test: Selectivity interaction (Reporter gene assay) EUB0001163a NR4A1; set-up: recommended concentration 10 uM
[13] = target: Steroidogenic factor 1 (Homo sapiens) (UniProt Q13285); test: Selectivity interaction (Reporter gene assay) EUB0001163a NR5A1; set-up: recommended concentration 10 uM
[14] = target: T4, Alpha trans-inducing protein (Human alphaherpesvirus 1); test: Selectivity interaction (Reporter gene assay) EUB0001163a UL48; set-up: recommended concentration 10 uM
[15] = target: T5, Retinoic acid receptor RXR-alpha (Homo sapiens); test: Selectivity interaction (Reporter gene assay) EUB0001163a RXRA; set-up: recommended concentration 10 uM; details: reference bexarotene 1 uM, Selectivity number of off-targets 0.0, Selectivity number of targets 1.0, Source Knowledge inhouse
[16] = target: Steroidogenic factor 1 (Homo sapiens) (UniProt Q13285); test: Selectivity interaction (Reporter gene assay) EUB0001161a NR5A1; set-up: recommended concentration 10 uM
[17] = target: T4, Alpha trans-inducing protein (Human alphaherpesvirus 1); test: Selectivity interaction (Reporter gene assay) EUB0001161a UL48; set-up: recommended concentration 10 uM
[18] = target: Nuclear receptor ROR-alpha (Homo sapiens) (UniProt P35398); details: screened at recom. conc., Selectivity number of off-targets 1.0, Selectivity number of targets 19.0, Source Knowledge inhouse
Nuclear receptor ROR-alpha (Homo sapiens), sequence (P35398 whole entry): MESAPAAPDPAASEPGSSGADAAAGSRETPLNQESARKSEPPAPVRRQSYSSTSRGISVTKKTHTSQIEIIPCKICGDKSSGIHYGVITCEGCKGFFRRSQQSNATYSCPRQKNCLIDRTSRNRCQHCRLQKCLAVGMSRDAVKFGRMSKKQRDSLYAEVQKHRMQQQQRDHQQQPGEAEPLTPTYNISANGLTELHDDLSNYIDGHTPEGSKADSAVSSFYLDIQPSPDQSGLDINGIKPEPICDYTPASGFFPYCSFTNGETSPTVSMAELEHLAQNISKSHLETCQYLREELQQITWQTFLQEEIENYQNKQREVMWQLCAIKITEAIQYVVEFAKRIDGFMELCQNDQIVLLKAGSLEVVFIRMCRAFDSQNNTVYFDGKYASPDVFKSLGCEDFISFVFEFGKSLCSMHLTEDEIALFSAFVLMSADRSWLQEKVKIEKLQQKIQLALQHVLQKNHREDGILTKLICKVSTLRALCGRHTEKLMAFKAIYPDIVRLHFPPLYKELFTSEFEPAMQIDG

[19] = target: T3, Nuclear receptor subfamily 2 group C member 1 (Homo sapiens); details: screened at recom. conc., Selectivity number of off-targets 1.0, Selectivity number of targets 5.0, Source Knowledge inhouse
[20] = target: T2, Hepatocyte nuclear factor 4-alpha (Homo sapiens)
[21] = target: Nuclear receptor subfamily 2 group E member 1 (Homo sapiens) (UniProt Q9Y466)
[22] = target: Nuclear receptor subfamily 4immunitygroup A member 1 (Homo sapiens) (UniProt P22736)
[23] = target: T2, Hepatocyte nuclear factor 4-alpha (Homo sapiens); test: Selectivity interaction (Reporter gene assay) EUB0001164a HNF4A; set-up: recommended concentration 1 uM
[24] = target: T3, Nuclear receptor subfamily 2 group C member 1 (Homo sapiens); test: Selectivity interaction (Reporter gene assay) EUB0001164a NR2C1; set-up: recommended concentration 1 uM
[25] = target: Nuclear receptor subfamily 2 group E member 1 (Homo sapiens) (UniProt Q9Y466); test: Selectivity interaction (Reporter gene assay) EUB0001164a NR2E1; set-up: recommended concentration 1 uM
[26] = target: Nuclear receptor subfamily 4immunitygroup A member 1 (Homo sapiens) (UniProt P22736); test: Selectivity interaction (Reporter gene assay) EUB0001164a NR4A1; set-up: recommended concentration 1 uM
[27] = target: Steroidogenic factor 1 (Homo sapiens) (UniProt Q13285); test: Selectivity interaction (Reporter gene assay) EUB0001164a NR5A1; set-up: recommended concentration 1 uM
[28] = target: T4, Alpha trans-inducing protein (Human alphaherpesvirus 1); test: Selectivity interaction (Reporter gene assay) EUB0001164a UL48; set-up: recommended concentration 1 uM
[29] = target: T5, Retinoic acid receptor RXR-alpha (Homo sapiens); test: Selectivity interaction (Reporter gene assay) EUB0001164a RXRA; set-up: recommended concentration 1 uM; details: reference bexarotene 1 uM, Selectivity number of off-targets 0.0, Selectivity number of targets 1.0, Source Knowledge inhouse
[30] = target: T2, Hepatocyte nuclear factor 4-alpha (Homo sapiens); test: Selectivity interaction (Reporter gene assay) EUB0001157a HNF4A; set-up: recommended concentration 10 uM
[31] = target: T3, Nuclear receptor subfamily 2 group C member 1 (Homo sapiens); test: Selectivity interaction (Reporter gene assay) EUB0001157a NR2C1; set-up: recommended concentration 10 uM
[32] = target: Nuclear receptor subfamily 2 group E member 1 (Homo sapiens) (UniProt Q9Y466); test: Selectivity interaction (Reporter gene assay) EUB0001157a NR2E1; set-up: recommended concentration 10 uM
[33] = target: Nuclear receptor subfamily 4immunitygroup A member 1 (Homo sapiens) (UniProt P22736); test: Selectivity interaction (Reporter gene assay) EUB0001157a NR4A1; set-up: recommended concentration 10 uM
[34] = target: Steroidogenic factor 1 (Homo sapiens) (UniProt Q13285); test: Selectivity interaction (Reporter gene assay) EUB0001157a NR5A1; set-up: recommended concentration 10 uM
[35] = target: T4, Alpha trans-inducing protein (Human alphaherpesvirus 1); test: Selectivity interaction (Reporter gene assay) EUB0001157a UL48; set-up: recommended concentration 10 uM
[36] = target: T5, Retinoic acid receptor RXR-alpha (Homo sapiens); test: Selectivity interaction (Reporter gene assay) EUB0001157a RXRA; set-up: recommended concentration 10 uM; details: reference bexarotene 1 uM, Selectivity number of off-targets 0.0, Selectivity number of targets 1.0, Source Knowledge inhouse

SMILES: CCOC(=O)Nc1ccc2c(c1)N(C(=O)CN(CC)CC)c1ccccc1CC2
Fold activation [9]: 1.08
Fold activation [10]: 1.37
Remaining activity [11]: 1.38
Remaining activity [12]: 1.21
Fold activation [13]: 1.16
P-value [14]: 0.011
Relative activation [15]: 0.623%

SMILES: COc1cc(O)c(C(CC(=O)N2C[C@H](C)C[C@H](C)C2)c2ccc3c(c2)OCO3)c(OC)c1 (stereo partly specified)
Remaining activity [16]: 0.942
P-value [17]: 0.000227
Remaining activity [18]: 0.851
Remaining activity [19]: 0.425
Remaining activity [20]: 0.972
Remaining activity [21]: 0.509
Remaining activity [22]: 0.899

SMILES: CCOC(=O)c1ccc(CN(Cc2ccc(-c3cccc(S(C)(=O)=O)c3)cc2)S(=O)(=O)c2c(C)cc(C)cc2C)o1
Fold activation [23]: 1.29
Fold activation [24]: 1.02
Remaining activity [25]: 0.776
Fold activation [26]: 1.26
Fold activation [27]: 1.07
P-value [28]: 0.0222
Relative activation [29]: 0.903%

Next, values leading:

Fold activation [1]: 5.01
Fold activation [2]: 1.13
Fold activation [3]: 1.18
Fold activation [4]: 1.12
Fold activation [5]: 1.01
Fold activation [6]: 1.07
P-value [7]: 0.0011
Relative activation [8]: 0.698%
SMILES: O=C(O)c1ccnc(N2CC(O)(c3ccc(OCc4c(-c5c(Cl)cccc5Cl)noc4C4CC4)cc3Cl)C2)c1

Remaining activity [30]: 0.822
Remaining activity [31]: 0.846
Remaining activity [32]: 0.634
Remaining activity [33]: 0.943
Remaining activity [34]: 0.818
P-value [35]: 0.00195
Relative activation [36]: 0.211%
SMILES: O=S(=O)(Nc1ccc(C(O)(C(F)(F)F)C(F)(F)F)cc1)c1cccs1

Reference: ChEMBL document CHEMBL5715260, “Selectivity Literature for EUbOPEN Chemogenomic Library” (2024)
